Test results from PMC3912202 (2014).

How the values were obtained:
[1] = system: double stranded polyriboadenylic acid (ds poly-A) (RNA, polymer) A; experiment: thermal melting profile (CD); conditions: 10 mM citrate-phosphate buffer, pH 4.5; 100.0 µM ds poly-A, D/P 0.53; no change, transition around 74°C
[2] = system: double stranded polyriboadenylic acid (ds poly-A) (RNA, polymer) A; experiment: fluorescence titration; conditions: 10 mM citrate-phosphate buffer, pH 4.5, 20°C; up to P/D 100 (510.50 µM ds poly-A, 5.0 µM ST)
[3] = system: single stranded polyriboadenylic acid (ss poly-A) (RNA, polymer) A; experiment: fluorescence titration, Scatchard, McGhee-von Hippel fit; conditions: 10 mM Na+; 10 mM citrate-phosphate buffer, pH 7.0, 20°C; intrinsic constant, per nucleotide; per base
[4] = system: single stranded polyriboadenylic acid (ss poly-A) (RNA, polymer) A; experiment: absorption titration, Scatchard, McGhee-von Hippel fit; conditions: 10 mM Na+; 10 mM citrate-phosphate buffer, pH 7.0, 20°C; intrinsic constant, per nucleotide; per base
[5] = system: double stranded polyriboadenylic acid (ds poly-A) (RNA, polymer) A; experiment: circular dichroism; conditions: 10 mM citrate-phosphate buffer, pH 4.5, 20°C; 100.0 µM ds poly-A, up to 55.60 µM ST
[6] = system: double stranded polyriboadenylic acid (ds poly-A) (RNA, polymer) A; experiment: absorption titration; conditions: 10 mM citrate-phosphate buffer, pH 4.5, 20°C; up to P/D 100 (301.09 µM ds poly-A, 3.05 µM ST)

binding [1]: no
binding [2]: no
K′ [3]: 6.15±0.20 × 10^5 M^-1
K′ [4]: 5.98±0.20 × 10^5 M^-1
binding [5]: no
binding [6]: no
SMILES: Cc1cc2nc3cc(C)c(N)cc3[n+](-c3ccccc3)c2cc1N
